Patent US11433021B2, “Palonosetron for the treatment or prevention of nausea and vomiting” (ORION CORPORATION, priority 2018, dated 2022)

Columns and labels:
[1] = system: cisplatin-induced nausea and vomiting; assay: Efficacy of palonosetron eye drops in cisplatin-induced nausea and vomiting model; format: in vivo, Beagle dogs; conditions: n=6; for vomiting episodes: T0-T420 min
Method: Experiment 3. Efficacy of Palonosetron Eye Drops in Cisplatin-Induced Nausea and Vomiting Model Methods: Six non-naive adult male Beagle dogs were intravenously administered (2 ml/min) cisplatin at 18 mg/m^2 body surface over 20 min. Then, 45 min after the end of the infusion, the dogs received eye drops prepared according to Formulation Example 1 at 30 or 120 μg/kg of palonosetron or its vehicle (0.9% saline, 2% povidone) in a cross-over design. Then, the following parameters were recorded by blinded observers over 15 min periods from TO (end of the infusion of cisplatin) to 420 min (T420) after the end of the infusion of cisplatin: vomiting episodes and nausea-like behaviours including salivation, exaggerated swallowing motions, lip licking, lethargy, restlessness, and turning behaviour signalling that vomiting is imminent. In addition, a visual analogue scale (VAS) from 0 to 100 mm was used to assess the severity of the dogs' nausea-like behaviours (where a score of 0 mm=no nausea and a score of 100 mm=worst possible nausea).

[2] = Bioavailability of palonosetron as ocular drops vs. intravenous administration; format: in vivo, Beagle dogs
Method: Experiment 1. Bioavailability of Palonosetron as Ocular Drops Vs. Intravenous Administration
Bioavailability of palonosetron as ocular drops at the dose of 30 μg/kg was compared to 10 μg/kg intravenous (i.v.) palonosetron in Beagle dogs (n=6). The study was a crossover study with 7 days washout period between the treatment periods. The animals were fasted overnight before dosing by withdrawing the remaining feed (if any) at least 12 h before dosing. On dosing days food was offered approximately at 4 h after dosing (after the 4 h blood sampling).
Palonosetron 30 μg/kg eye drops prepared according to Formulation Example 1 were administered in the eye using a micropipette in an amount of 10 μl/kg (approximately half volume in each eye).
Palonosetron 10 μg/kg intravenous dose was administered in cephalic vein in slow i.v. bolus dosed within 30 seconds.
Blood samples were collected into K2EDTA tubes over a 48 h period after each treatment at the following time points: predose, 5 min, 10 min, 20 min, 30 min, 45 min, 1 h, 1.5 h, 2 h, 4 h, 6 h, 8 h, 12 h, 24 h and 48 h post administration. Aliquots of plasma were prepared and stored frozen until analysis. Palonosetron concentration in plasma was determined using Liquid chromatography-triple quadrupole mass spectrometry. The lower limit of quantification for palonosetron in dog plasma was 0.02 ng/ml.

[3] = 30 μg/kg ocular drops (Formulation Example 1), Beagle dogs

Which vomiting episodes ([1]; 30 μg/kg eye drops (Formulation Example 1) 45 min after cisplatin 18 mg/m^2 i.v.) does the source give for `O=C1c2cccc3c2[C@H](CCC3)CN1[C@@H]1CN2CCC1CC2` [Palonosetron] here?
The vomiting episodes was 1 vomiting episode in 2 dogs overall.

What about the “VAS AUC (nausea)” value ([1]; 30 μg/kg eye drops (Formulation Example 1) after cisplatin 18 mg/m^2, mean±SEM) of the same molecule?
The value was 320±268 mm*m.

And the vomiting episodes ([1]; 120 μg/kg eye drops (Formulation Example 1) 45 min after cisplatin 18 mg/m^2 i.v.)?
The vomiting episodes was “inhibited vomiting totally”.

And the “VAS AUC (nausea)” value ([1]; 120 μg/kg eye drops (Formulation Example 1) after cisplatin 18 mg/m^2, mean±SEM)?
Its value is 0±0 mm*m.

What about the absorption [2, 3] of the same molecule?
Its absorption is “fast absorption comparable to intravenous administration”.

And the elimination phase [2, 3]?
Its elimination phase is “extended elimination phase”.

What about the eye irritation [2, 3] of the same molecule?
Its eye irritation is “No significant eye irritation was seen”.

And the systemic exposure [2, 3]?
Its systemic exposure is “good systemic exposure”.

And the bioavailability ([2]; dog, other: ocular drops (administered in the eye), 30 μg/kg ocular drops (Formulation Example 1) vs. 10 μg/kg i.v., Beagle dogs (n=6), plasma)?
The bioavailability was 65.6%.
